Key:
Assay in all cases: Biological Example 3 glasshouse assay for herbicidal activity, using various adjuvant systems, post-emergence
Format in all cases: in vivo
[1] = system: Digitaria sanguinalis (DIGSA); settings: 8 g/ha, 14 DAA, 0.5% v/v Adigor + 1.0% v/v AMS + 12.5% v/v IPA
Method: (§1) Post-emergence foliar spray application, 200 L/ha, usually one or two replicates for the weeds (depending on application rate), and two replicates for soybean.
(§2) Standard warm conditions (tropical), in glasshouse. Specifically, the glasshouse bay conditions are 24° C./18° C. day/night; 16/8 hours light/dark; 65% humidity.
(§3) The herbicidal application takes place at the following growth stages for plants which include inter alia one or more of the following plants (usually the herbicidal application takes place on at least the following six plants: DIGSA, ELEIN, SETFA, GLXMA Nikko, and GLXMA TMG133, and either BRADC or BRAPP):
Digitaria sanguinalis (DIGSA)—growth stage 12 or 13
(§4) Each test Compound is applied with one of the following adjuvant systems (all percentages are final concentrations in the aqueous spray mixture):
(§5) Adjuvant system 1: 0.5% v/v Adigor™ *, 1.0% v/v AMS (ammonium sulphate) and 12.5% v/v IPA (isopropyl alcohol).
(§6) Adjuvant system 2: 0.5% v/v Adigor™ * and 12.5% v/v IPA (isopropyl alcohol).
(§7) Adjuvant system 3: 0.5% v/v Hexamoll™ DINCH **, 1.0% v/v AMS (ammonium sulphate) and 12.5% v/v IPA (isopropyl alcohol).
Seeds of the weed plants, typically including inter alia [either Brachiaria decumbens (BRADC) or Brachiaria platyphylla (BRAPP)], Digitaria sanguinalis (DIGSA), Eleusine indica (ELEIN), Setaria faberi (SETFA) are sown in seed trays (troughs) containing clay loam soil (pH 7.0, 2.2% organic matter, “Trough Mix A”); and soybean seed is sown in pots containing the same soil with 3 soybean seedlings per pot. The plants are sprayed with the test herbicide when they reach the growth stages mentioned above. […]
(§8) A visual assessment of the % herbicidal damage is made 7 and 14 Days After herbicide Application (DAA) (or, in a minority of cases, 7 and 15 DAA), and the results are recorded as % visual herbicidal damage where 0%=no damage to plants and 100%=plant totally killed. […]

Eleusine indica (ELEIN) = settings: 8 g/ha, 14 DAA, adjuvant system per compound
Method: as §1, §2, §3
Eleusine indica (ELEIN)—growth stage 12 or 13
as §4, §5, §6, §7
(§9) Seeds of the weed plants, typically including inter alia [either Brachiaria decumbens (BRADC) or Brachiaria platyphylla (BRAPP)], Digitaria sanguinalis (DIGSA), Eleusine indica (ELEIN), Setaria faberi (SETFA) are sown in seed trays (troughs) containing clay loam soil (pH 7.0, 2.2% organic matter, “Trough Mix A”); and soybean seed is sown in pots containing the same soil with 3 soybean seedlings per pot. The plants are sprayed with the test herbicide when they reach the growth stages mentioned above.
(§10) The test herbicidal solutions are prepared by mixing the appropriate aliquots of the test substance(s) and the adjuvant system indicated above *** in deionised water to give the desired treatment concentration. […]
as §8

Setaria faberi (SETFA) = settings: 8 g/ha, 14 DAA, 0.5% v/v Adigor + 1.0% v/v AMS + 12.5% v/v IPA
Method: as §1, §2, §3
Setaria faberi (SETFA)—growth stage 12 or 13
as §4, §5, §6, §7, §9, §10, §8

[2] = system: Glycine max (GLXMA, soybean) cultivar “Nikko”; settings: 120 g/ha, 14 or 15 DAA, adjuvant system per compound
Method: as §1, §2, §3
Glycine max (GLXMA, soybean) cultivar “Nikko”—growth stage: 1st trifoliate
as §4, §5
Adjuvant system 2: 0.5% v/v Adigor™ * and 12.5% v/v IPA (isopropyl alcohol). […]
as §8

[3] = system: Glycine max (GLXMA, soybean) cultivar “TMG133”; settings: 120 g/ha, 14 or 15 DAA, adjuvant system per compound
Method: as §1, §2, §3
Glycine max (GLXMA, soybean) cultivar “TMG133”—which is Roundup Ready™glyphosate-tolerant soybean cultivar TMG133 (typically available from Monsanto in Brazil)—growth stage: 1st trifoliate.
Each test Compound is applied with one of the following adjuvant systems (all percentages are final concentrations in the aqueous spray mixture): […]
as §8
Glycine max (GLXMA, soybean) cultivar “TMG133” is Roundup Ready™ glyphosate-tolerant soybean cultivar TMG133, and is typically available from Monsanto in Brazil.

| SMILES | percentage control of Digitaria sanguinalis (DIGSA) [1] [%] | percentage control of Eleusine indica (ELEIN) (Eleusine indica (ELEIN)) [%] | percentage control of Setaria faberi (SETFA) (Setaria faberi (SETFA)) [%] | percentage phytotoxicities on Glycine max (GLXMA, soybean) cultivar “Nikko” [2] [%] | percentage phytotoxicities on Glycine max (GLXMA, soybean) cultivar “TMG133” [3] [%] |
| --- | --- | --- | --- | --- | --- |
| CC#Cc1cc(Cl)c(C2C(=O)CC3(CCOCC3)CC2=O)c(OC)c1 [Compound A-20, 9-(2-Chloro-6-methoxy-4-prop-1-ynyl-phenyl)-3-oxa-spiro[5.5]undecane-8,10-dione] | 100 | 95 | 98 | 85 | 85 |
| CC#Cc1cc(C)c(C2C(=O)C3CCC(C3)C2=O)c(C)c1 (centres unmarked) [Compound A-5] |  | 45 |  |  |  |
| CC#Cc1cc(C)c(C2C(=O)CC(CCSC)CC2=O)c(C)c1 (centres unmarked) [Compound A-21, 2-(2,6-Dimethyl-4-prop-1-ynyl-phenyl)-5-(2-methylsulfanyl-ethyl)cyclohexane-1,3-dione] |  |  |  | 85 | 85 |

From patent US9615577B2, “Herbicidally active cyclic dione compounds, or derivatives therefor, substituted by a phenyl which has an alkynyl-containing substituent” (Syngenta Limited, priority 2012, dated 2017)
